Results from patent US20230392180A1, “MICROSCOPIC IMAGING AND ANALYSES OF EPIGENETIC LANDSCAPE” (Sanford Burnham Prebys Medical Discovery Institute, priority 2020, published 2023).
Entries after “also recorded” stand apart in the source; their conditions may differ.

Legend:
C57BL/6J male mice = assay: miBioAge (MIEL-CLOCK) after doxorubicin injection; assay type: in vivo
Protocol: This can be shown by employing classical treatments such as doxorubicin (DOX), paclitaxel (PTX), or temozolomide (TMZ), known to promote hallmarks of aging to compare miBioAge readouts in blood (PBMC and CD3+ cells) and liver hepatocytes to chronologically matched untreated controls. Blood was collected on day 0 (retro-orbital) from 3-month old C57BL/6J male mice and 22-month old C57BL/6J male mice. On day 1, doxorubicin was injected into the experimental mice. All controls received PBS injection. Blood was collected on day 20 (retro-orbital) from all mice and liver hepatocytes on day 21. Cells were analyzed 21 days after treatment to avoid the effects of acute stress response and favor the aging-related phenomena.

[1] = Variance of chromatin and epigenetic landscape (VITA) score; assay type: in vivo, mice; conditions: after treatment
Excerpt: In some instances, in addition to computing the values of individual cell nucelli in multidimensional space of statistical texture features, coefficient of variance (CV) is used, defined as the ratio of the standard deviation a sigma to the mean p, namely. CV for each field of view, well, technical replicate, and biological replicate such organs tissues and cells from individual mice could be computed based on individual nuclei and the results are stable using 200-2000 nuclei per experimental replica (e.g., individual wells). […] This means that quantitatively CV can be informative values serving as a quantitative measurement of individual organ, tissue, or cell type from individual animals.

[2] = female, human
H3K27ac and H3K27me3 = H3K27ac and H3K27me3 immunofluorescence intensity; assay type: cell-based, human; conditions: GBM2, low concentrations (<30 μM), compared with Pan HDAC inhibitors TSA, SAHA
GBM2 cells [3] = assay: RNAseq and transcriptomic analysis; assay type: cell-based, human
Protocol: RNAseq and transcriptomic analysis: Total RNA was isolated from GBM2 cells using the RNeasy Kit (Qiagen), 0.5 ug total RNA was used for isolation of mRNAs and library preparation. Library preparation and sequencing was conducted by the SBP genomics core (Sanford-Burnham NCI Cancer Center Support Grant P30 CA030199). PolyA RNA was isolated using the NEBNext® Poly(A) mRNA Magnetic Isolation Module and barcoded libraries were made using the NEBNext® Ultra II™ Directional RNA Library Prep Kit for Illumina® (NEB, Ipswich MA). Libraries were pooled and single end sequenced (1X75) on the Illumina NextSeq 500 using the High output V2 kit (Illumina). Read data was processed in BaseSpace. Reads were aligned to Homo sapiens genome (hg19) using STAR aligner with default settings. Differential transcript expression was determined using the Cufflinks Cuffdiff package. Go term enrichment analysis was conducted using PANTHER v11 using all genes identified as differentially expressed following either serum or Bmp4 treatment. For heat maps showing fold change in expression the FPKM values in each population were divided by the average FPKM values of untreated GBM2. To highlight differences in expression levels between serum and Bmp4 treated GBM2 cells the FPKM values in each sample were z-scored. Zscore=(FPKMObservation−FPKMAverage)/FPKMSD (FPKMObservation−FPKM value obtain through sequencing; FPKMAverage−average of all FPKM values in all samples for a certain gene; FPKMSD−standard deviation of FPKM values for a certain gene). Heat maps were generated using Microsoft Excel conditional formatting function.
Correlation of transcriptomic and image-based profiles: Euclidean distance between untreated, serum or Bmp4 treated GBM2 cells (triplicates for each) was calculated using either transcriptomic data (FPKM) or texture features. Pearson's correlation coefficient (R) was transformed to a t-value using the formula (t=R×SQRT(N−2)/SQRT(1−R2) where N is the number of samples, and R is Pearson correlation coefficient, and the p-value was calculated using Excel tdist(t) function. For compound prioritization, the Euclidean distance between compound treated and serum or Bmp4 treated GBM2 cells was calculated based on either transcriptomic data (FPKM) or image features. The average distance to both serum and Bmp4 treatments was normalized to the average distance of untreated cells to serum and Bmp4.
RNAseq and transcriptomic analysis: Total RNA was isolated from GBM2 cells using the RNeasy Kit (Qiagen), 0.25 μg total RNA was used to isolate mRNAs and for library preparation. Library preparation and sequencing were conducted by the SBP genomics core (Sanford-Burnham NCI Cancer Center Support Grant P30 CA030199). PolyA RNA was isolated using the NEBNext® Poly(A) mRNA Magnetic Isolation Module, and barcoded libraries were made using the NEBNext® Ultra II™ Directional RNA Library Prep Kit for Illumina® (NEB, Ipswich MA). Libraries were pooled and single-end sequenced (1×75) on the Illumina NextSeq 500 using the High-Output V2 kit (Illumina). Read data, processed in BaseSpace, were aligned to Homo sapiens genome (hg19) using STAR aligner with default settings. Differential transcript expression was determined using the Cufflinks Cuffdiff package. For heat maps showing fold change in expression, FPKM values in each HDACi-treated population were divided by the average FPKM values of DMSO-treated GBM2 and values shown as log 2 of the ratio. Go enrichment analysis was conducted using PANTHER v11 using all genes identified as differentially expressed following either serum or Bmp4 treatment. To highlight differences in expression levels between serum- and Bmp4-treated GBM2 cells, FPKM values in each sample were z-scored. Zscore=(FPKMObservation−FPKMAverage)/FPKMSD (FPKMObservation−FPKM value obtain through sequencing; FPKMAverage−average of all FPKM values in all samples for a certain gene; FPKMSD−standard deviation of FPKM values for a certain gene). […]

GBM2 cells [4] = assay: Epigenetic Drug Screening (MIEL); assay type: cell-based, human
Excerpt: Data processing: The image features-based profile for each cell population (e.g., cell types, treatments, technical repetition) was represented using a vector (center of distribution vectors) in which every element is the average value of all cells in that population for a particular feature. The vector's length is given by the number of features chosen (262 per histone modification). Raw feature values were normalized by z-scoring to the average and standard deviation of all populations being compared. All cells in each population were used to calculate center vectors, and each population contained at least 50 cells. Activity level for each drug was determined by calculating the distance from DMSO. […] Euclidean distance of each compound and each DMSO replicate to the DMSO center vector was calculated. Distances were z-scored to the average distance and standard deviation of DMSO replicates from the DMSO center vector. Transcriptomic-based profile for each cell population was represented using a vector in which every element is the z-scored FPKM value for a single gene in that population. […] Raw feature values for all center vectors of all populations in each plate were normalized to the plate-wise DMSO vector; normalized feature values were z-scored as above. […] Activity levels were calculated as above. […] Cell counts were z-scored against the average and standard deviation of all DMSO replicates. […]

GBM cell lines = assay: Immunostaining of core transcription factors and GFAP after serum or Bmp4 treatment; assay type: cell-based, human
Protocol: Differentiation treatment: For TPC differentiation treatments cells were cultured in DMEM:F12 Neurobasal media (1:1), 1% B27 supplement, 10% BIT 9500, 1 mM glutamine supplemented with either Bmp4 (100 ng/ml; R&D Systems) or FBS (10%).
Cell staining: Cells were rinsed with PBS and fixed in 4% paraformaldehyde in PBS for 10 min at room temperature. After blocking with PBSAT (2% BSA and 0.5% Triton X-100 in PBS) for 1 h at room temperature, the cells were incubated overnight at 4° C. with primary antibodies diluted in PBSAT. The primary antibodies are listed in Table 2, and the appropriate fluorochrome-conjugated secondary antibodies were used at 1:500 dilution. Nuclear co-staining was performed by incubating cells with Hoechst-33342 nuclear dye.
Microscopy and image analysis: Unless stated otherwise, for MIEL analysis cells were imaged on an Opera QEHS high-content screening system (PerkinElmer) using ×40 water immersion objectives. Images collected on the Opera were analyzed using Acapella 2.6 (PerkinElmer). […] Features of nuclear morphology, fluorescence intensity inter-channel co-localization, and texture features (Image moments, Haralick, Threshold Adjacency Statistics) were calculated using custom algorithms (scripts available from www.andrewslab.ca). […] Between 3 and 8 fields per well were acquired and analyzed using Acapella 2.6 (PerkinElmer). […]

TPCs = assay: Growth rate of treated glioblastoma cells; conditions: 3 days of serum or Bmp4 treatment

**Q.** For `COc1cccc2c1C(=O)c1c(O)c3c(c(O)c1C2=O)C[C@@](O)(C(=O)CO)C[C@@H]3O[C@H]1C[C@H](N)[C@H](O)[C@H](C)O1` [DOX, doxorubicin], which miBioAge distance (C57BL/6J male mice; 3-month, compared to 3-month control) is on record?
**A.** Its miBioAge distance is “increases”.

**Q.** What about the “miBioAge signatures in CD3+ cells” value (C57BL/6J male mice; blood collected on day 20) of the same molecule?
**A.** The value was “trend shift”.

**Q.** What about the “miBioAge signatures in PBMC” value (C57BL/6J male mice; blood collected on day 20) of the same molecule?
**A.** Its value is “trend shift”.

**Q.** And the “miBioAge signatures in liver hepatocytes” value (C57BL/6J male mice; cells analyzed 21 days after treatment)?
**A.** Its value is “towards the old age”.

**Q.** And the VITA score [1]?
**A.** Its VITA score is “trend for the increase; also recorded: increases”.

**Q.** Which “estimated concentrations reached following repeated administration” value [2] does the source give for `Oc1ccc(O)cc1` [Hydroquinone] here?
**A.** Its value is roughly 10 µM.

**Q.** Which “estimated concentrations reached following repeated administration” value [2] does the source give for `CC(=O)S[C@@H]1CC2=CC(=O)CC[C@]2(C)[C@H]2CC[C@@]3(C)[C@@H](CC[C@@]34CCC(=O)O4)[C@H]12` [spironolactone] here?
**A.** The value was roughly 10 µM.

**Q.** Which “H3K27ac and H3K27me3 immunofluorescence intensity” value (H3K27ac and H3K27me3) does the source give for `CCCC(CCC)C(=O)O` [valproic acid] here?
**A.** The value was “no increase in histone acetylation or decrease in histone methylation”.

**Q.** What about the “transcriptomic changes (genes altered vs DMSO)” value (GBM2 cells [3]; GBM2, 24 hours, valproic acid 15 μM) of the same molecule?
**A.** Its value is “not reflected”.

**Q.** What about the “functional classification by discriminant analysis (MIEL)” value (GBM2 cells [4]; 10 μM, 24 hours, 85 compounds) of the same molecule?
**A.** Its value is “active but were misclassified”.

**Q.** And the “epigenetic changes detected by MIEL” value (GBM2 cells [4]; 24-hour treatment, low concentrations (<30 μM))?
**A.** The value was “detectable epigenetic changes”.

**Q.** Which GFAP expression (GBM cell lines) does the source give for “Bmp4: Bmp4 (100 ng/ml; R&D Systems), positive control inducing TPC differentiation” here?
**A.** Its GFAP expression is “increased”.

**Q.** And the “expression of transcription factors Sox2, Sall2, Brn2 and Olig2” value (GBM cell lines; 3 days treatment, cell line dependent)?
**A.** The value was “down regulated; also recorded: downregulated”.

**Q.** And the “expression of most genes of the transcriptomic stemness signature” value (GBM2 cells [3]; GBM2, 3 days treatment, vs untreated cells)?
**A.** The value was “reduced”.

**Q.** What about the “growth rate of TPCs” value (TPCs) of the same molecule?
**A.** Its value is “reduced; also recorded: attenuate”.
